Earlier results in US7767881B2, “Utilization of histamine receptor h3 gene participating in body weight or food intake control” (priority 2001, dated 2010).

Legend:
[1] = experimental epilepsy model
mice [2] = system: mice
mice [3] = system: mice; remark: listed apart in the source
mice [4] = system: mice; remark: listed apart in the source
[5] = system: senescence-accelerated mice; conditions: senescence-accelerated mice with learning disabilities

CCCN(CCC)C1CCc2cccc(O)c2C1 (centres unmarked) [8-OH-DPAT]
histamine neuron metabolic turnover (histamine neuron): reduce histamine neuron metabolic turnover

NC(=NCc1ccc(Cl)cc1)SCCCc1cnc[nH]1 [Clobenpropit]
electroconvulsion [1]: suppressed

C[C@@H](N)Cc1c[nH]cn1 [RAMH, R-α-methylhistamine]
deep slow-wave sleep (cats; administration of the agonist): significant increase in deep slow-wave sleep
voluntary movement (rats): decreases voluntary movement
voluntary movement (mice [2]): decreases voluntary movement

O=C1CC2(CCCC2)CC(=O)N1CCCCN1CCN(c2ncccn2)CC1 [buspirone]
histamine neuron metabolic turnover (histamine neuron): reduce histamine neuron metabolic turnover

Clc1cccc(Cl)c1NC1=NCCN1 [clinidine]
histamine neuron metabolic turnover (histamine neuron): reduce histamine neuron metabolic turnover

NCCc1c[nH]cn1 [histamine]
analgesic/algesic action (mice [3]; mice, intracerebral administration): analgesic and/or algesic action, depending on the dose

S=C(NC1CCCCC1)N1CCC(c2cnc[nH]2)CC1 [thioperamide]
waking (cats; effect antagonized by RAMH): waking effects were observed
effect on RAMH-induced increase in deep slow-wave sleep (cats; given against RAMH): reversed
anxiety (mice [4]): anxiety-inducing effects
learning [5]: improving learning
analgesia (mice [3]; due to stimulation of the histamine receptor H1 protein, antagonized by RAMH): attenuation of analgesia
electroconvulsion [1]: suppressed
